Results as given in ChEMBL document CHEMBL4184201, “Inhibition of protein tyrosine phosphatase 1B (PTP1B) and α-glucosidase by xanthones from Cratoxylum cochinchinense, and their kinetic characterization” (Bioorg Med Chem, 2018).
The source made the active and inactive calls. The rule behind the calls is not given here.

Columns and labels:
Alpha glucosidase [1] = molecular target: T1, Alpha glucosidase (Homo sapiens, UniProt O43451+P10253+P14410+Q2M2H8); experiment: Inhibition of alpha-glucosidase (unknown origin) using PNP-G as substrate measured for 15 mins by spectrophotometry; format: protein assay
Alpha glucosidase [2] = molecular target: T1, Alpha glucosidase; experiment: Inhibition of alpha-glucosidase (unknown origin) using PNP-G as substrate by Dixon plot analysis; format: protein assay
[3] = molecular target: T2, Tyrosine-protein phosphatase non-receptor type 1 (Homo sapiens, UniProt P18031); experiment: Inhibition of recombinant human PTP1B (1 to 322 residues) expressed in Escherichia coli using P-NPP as substrate after 10 mins by spectrophotometry
T2 sequence (P18031 whole entry): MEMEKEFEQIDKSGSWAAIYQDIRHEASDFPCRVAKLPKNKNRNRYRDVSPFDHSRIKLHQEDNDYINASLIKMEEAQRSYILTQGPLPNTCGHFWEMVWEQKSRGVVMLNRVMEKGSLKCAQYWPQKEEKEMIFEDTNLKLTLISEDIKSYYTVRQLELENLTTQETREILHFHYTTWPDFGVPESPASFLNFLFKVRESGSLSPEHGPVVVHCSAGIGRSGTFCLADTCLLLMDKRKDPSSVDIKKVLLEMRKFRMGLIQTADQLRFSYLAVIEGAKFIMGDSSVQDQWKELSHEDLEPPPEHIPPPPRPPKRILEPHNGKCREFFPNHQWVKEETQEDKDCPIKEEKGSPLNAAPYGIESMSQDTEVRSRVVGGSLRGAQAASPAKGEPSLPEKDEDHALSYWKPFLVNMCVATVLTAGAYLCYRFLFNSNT

[4] = molecular target: T2, Tyrosine-protein phosphatase non-receptor type 1; experiment: Inhibition of recombinant human PTP1B (1 to 322 residues) expressed in Escherichia coli using P-NPP as substrate after 10 mins by Dixon plot analysis
Alpha glucosidase [5] = molecular target: T1, Alpha glucosidase; experiment: Mixed type inhibition of alpha-glucosidase (unknown origin) using PNP-G as substrate by Lineweaver-Burk plot analysis; format: protein assay
[6] = molecular target: T3, Tyrosine-protein phosphatase non-receptor type 1 (Homo sapiens) (UniProt P18031); experiment: Competitive inhibition of recombinant human PTP1B (1 to 322 residues) expressed in Escherichia coli using P-NPP as substrate after 10 mins by Lineweaver-Burk plot analysis
T3 sequence (whole entry): T2 sequence (P18031 whole entry)

[7] = molecular target: T2, Tyrosine-protein phosphatase non-receptor type 1; experiment: Time dependent inhibition of recombinant human PTP1B (1 to 322 residues) expressed in Escherichia coli using P-NPP as substrate preincubated with enzyme for 30 mins by UV-spectrophotometric method; settings: read-out: Ki(app)
[8] = molecular target: T3, Tyrosine-protein phosphatase non-receptor type 1 (Homo sapiens); experiment: Inhibition of recombinant human PTP1B (1 to 322 residues) expressed in Escherichia coli assessed as forward rate constant for enzyme-inhibitor bound conformation using P-NPP as substrate incubated with enzyme for 30 mins by UV-spectrophotometric method
Alpha glucosidase [9] = molecular target: T1, Alpha glucosidase; experiment: Mixed type inhibition of alpha-glucosidase (unknown origin) assessed as enzyme-substrate-inhibitor complex formation using PNP-G as substrate by Lineweaver-Burk plot analysis; format: protein assay
Alpha glucosidase [10] = molecular target: T1, Alpha glucosidase; experiment: Reversible inhibition of alpha-glucosidase (unknown origin) using PNP-G as substrate measured for 15 mins by spectrophotometry; format: protein assay
[11] = molecular target: T3, Tyrosine-protein phosphatase non-receptor type 1 (Homo sapiens); experiment: Reversible inhibition of recombinant human PTP1B (1 to 322 residues) expressed in Escherichia coli using P-NPP as substrate after 10 mins by spectrophotometry

SMILES | IC50 (Alpha glucosidase [1]) | Ki (Alpha glucosidase [2]) | IC50 [3] | Ki [4] | Mixed-type inhibition (qualitative) (Alpha glucosidase [5]) | inhibition type (Lineweaver-Burk) [6] | inhibition (Alpha glucosidase [5]) | Ki [7] | K [8] | Ki (Alpha glucosidase [9]) | inhibition (Alpha glucosidase [10]) | inhibition [11]
CC(C)=CCC/C(C)=C/Cc1c(O)c(CC=C(C)C)c(O)c2c(=O)c3cc(O)ccc3oc12 [COCHINCHINONE A] | 17.4 µM | 13.4 µM | 5.2 µM | 3.1 µM | Active | Active | – | – | – | – | – | –
CC(C)=CCc1c(O)cc2oc3cc(O)c(O)c(CC=C(C)C)c3c(=O)c2c1O | 1.7 µM | 1.4 µM | 2.8 µM | 2.7 µM | – | Active | Active | – | – | – | – | –
CC(C)=CCC/C(C)=C/COc1cc2oc3ccc(O)cc3c(=O)c2c(O)c1CC=C(C)C | 28.4 µM | 27.2 µM | 7.05 µM | 5.1 µM | Active | Active | – | – | – | – | – | –
C=C(C)C(O)Cc1c(O)c(C/C=C(\C)CCC=C(C)C)c2oc3ccc(O)cc3c(=O)c2c1O (configuration not stated) | 4.8 µM | 4.2 µM | 2.4 µM | 2.1 to 2.4 µM | Active | Active | – | 2.4 µM | 50000 M⁻¹ s⁻¹ | 6.6 µM | Active | Active
CC(C)=CCCC(C)(O)C1Cc2c(c(CC=C(C)C)c(O)c3c(=O)c4cc(O)ccc4oc23)O1 (configuration not stated) | 16.1 µM | 9.9 µM | 7.2 µM | 3.4 µM | Active | Active | – | – | – | – | – | –
COc1c(O)cc2oc3cc(O)c(CC=C(C)C)c(O)c3c(=O)c2c1CC=C(C)C [MANGOSTIN] | 5.7 µM | 7.3 µM | 5.5 µM | 3.2 µM | Active | Active | – | – | – | – | – | –
COc1c(O)ccc2c(=O)c3c(O)cc4c(c3oc12)C(C)(C)C(CO)O4 (configuration not stated) | 72.7 µM | 33.9 µM | 52.5 µM | 32.7 µM | Active | Active | – | – | – | – | – | –
CC(C)=CCc1c(O)c(CC=C(C)C)c2oc3ccc(O)cc3c(=O)c2c1O | 25.5 µM | 19.2 µM | 10.5 µM | 11.1 µM | Active | Active | – | – | – | – | – | –
COc1c(O)cc2oc3cc(O)c(CCC(C)(C)O)c(O)c3c(=O)c2c1CC=C(C)C | 30.7 µM | 25.1 µM | 24.1 µM | 22.9 µM | Active | Active | – | – | – | – | – | –
CC(C)=CCC/C(C)=C/COc1ccc2oc3cc(O)cc(O)c3c(=O)c2c1 | 20.6 µM | 17.7 µM | 35.1 µM | 19.9 µM | Active | Active | – | – | – | – | – | –
C=C(C)C(O)CC/C(C)=C/COc1ccc2oc3cc(O)cc(O)c3c(=O)c2c1 (configuration not stated) | 13.7 µM | 13 µM | 25.2 µM | 29.5 µM | Active | Active | – | – | – | – | – | –
C=C(CCC=C(C)C)C(O)Cc1c(O)c(CC=C(C)C)c(O)c2c(=O)c3cc(O)ccc3oc12 (configuration not stated) | 10.1 µM | 8.2 µM | 12.5 µM | 8.9 µM | Active | Active | – | – | – | – | – | –
